Measurements: US20090074885A1, “Reversible Hydrophobic Modification of Drugs for Improved Delivery to Cells” (Roche Madison Inc., priority 2003, published 2009)
Like-named read-outs stand apart in the source and are kept apart here.

Tests used:
hepatocytes = experiment: Uptake by hepatocytes in vivo after intraportal injection (occluded blood flow); parameters: species or system mouse; details: normal liver, portal vein injection; for cells (hepatocytes) PI positive: 0.300 μmol
Description: Uptake of BDMODS-PI by hepatocytes in vivo. Intraportal injections were conducted in order to target hepatocytes. For the injections, both the portal vein and the celiac artery were clamped to occlude blood flow into the liver. The vena cava was not clamped in order to avoid increased pressure within the liver during the injection procedure. The blood in the liver was flushed out with 1 ml of ITG delivered through the portal vein (1 min). 0.300 μmol PI or II in 40 μl of DMF was then delivered together with 400 μl ITG via the mixing chamber. 5 min after injection the livers were perfused with 3 ml of ITG to flush any drug remaining in the vasculature, and livers were sectioned as above or the hepatocytes were isolated. Slides were prepared from the resulting hepatocyte isolations for examination by fluorescent microscopy (Axioplan2 fluorescent microscope in the fluorescein fluorescent channel (λex=BP 546/90, λem=LP 515 nm filter set) due to signal intensity, magnification=400×, Zeiss) by placing a drop of the cell suspension (about 20 μl) on a clean glass slide and preparing a cell smear. Random fields were examined, and the number of positive cells was counted out of a total of 200 cells in order to determine the percentage of PI positive cells in the sample.
The amount of PI retained in hepatocytes was also quantitated following intraportal injections of PI and II. The isolated hepatocyte cell suspensions were dissolved in 0.5% octyl glycoside in 10 mM HEPES buffer, pH 7.5. Nucleic acid was then isolated from cell suspensions (0.5 ml) using phenol extraction. PI fluorescence spectra were monitored (Shimadzu RF 1501 Spectrophotometer) using an excitation wavelength of 530 nm and an emission wavelength of 617 nm. All spectra were background subtracted using the fluorescence of cell suspensions from untreated animals. PI calibration curves were generated by mixing increasing amounts of PI in each of the samples. […] The amount of PI uptake was then calculated according to the equation: Amt(%)=100×PIs/PIi, where PIs is the amount of PI in the cell suspension and PIi is the amount of PI or BDMOD-PI injected (corrected for the sample size relative to the total liver).

[1] = tested on: SK-OV-3 peritoneal tumors; experiment: Direct application / IP injection in mouse model of disseminated peritoneal ovarian cancer; format: in vivo, nude mice; details: two weeks after SK-OV-3 inoculation, direct application or IP injection
Description: BDMODS-PI and C12PMMA-PI show enhanced drug uptake by surface tissue and microtumors following IP and intraperitoneal perfusion chemotherapy (IPPC) application in a mouse tumor model. For establishment of the cancer model, 2×10^6 SK-OV-3 cells were injected IP into nude mice. The mice were examined at two weeks following cell inoculation, or at the first manifestation of ascites (about 4-5 wks). Tissue samples were fixed in 10% NBF, routinely processed, stained with H&E stain, and subjected to histopathological analysis. […] At 4-5 weeks after SK-OV-3 cell inoculation, maximum tumor size increased to 5-7 mm with the bulk of cancer development present as about 0.1 to about 1 mm microtumors (FIG. 9). At 5 wks most peritoneal surfaces were affected by growing cancer cells, coating both the visceral and parietal peritoneum, e.g. liver, pancreas, and diaphragm. […]
Two weeks following cell inoculation, the abdominal cavity was opened and the drug mixture was directly applied on the duodenum and ovary/uterus/fallopian tubes (220 μL of drug-OS/ITG over 30 sec). […] Cellular uptake of the prodrug was stronger at the surface of the metastases, but also readily detectable in the middle of the small tumors (tumor size about 0.5 to about 1 mm; FIG. 7-8). […]

[2] = tested on: Hepa 1-6 (mouse hepatoma); experiment: WST cytotoxicity assay, Hepa 1-6; format: cell-based; details: for IC50: Hepa 1-6, 4 min drug exposure, read-out: Mean IC50
Description: Antiproliferative/Cytotoxic in vitro studies on PI, RRH-PI prodrugs, melphalan, and C12PMMA-melphalan. In vitro cytotoxicity testing was conducted on Hepa 1-6 (mouse hepatoma), SK-OV-3 (human ovarian carcinoma), and MC38 (mouse colon carcinoma) cells using a tetrazolium based assay (WST, Dojindo Molecular Technologies). For the WST assay, Hepa 1-6 (2.0×10^5 cells well), SK-OV-3 (7.5×10^5 cells well), and MC38 (8.5×10^5 cells well) were seeded in 1000 μL media into 12-well plates 24 h prior to testing (starting confluency ˜50%). Following removal of media, drug/prodrug solution was added drop-wise to quadruplicate wells, using the mixing chamber. Effective drug concentrations were calculated from the amount of drug added in the total volume of OS and aqueous solution. Following 4 min of drug solution exposure, the solution was removed, and 1000 μl fresh complete media was added to each well. After the cells were incubated for 24-48 h, WST-1 (20 μl of a 5 mM solution in PBS) and N-methylphenazonium methyl sulfate (PMS, 20 μl 0.2 mM solution in PBS) were added and the cells were incubated for 1-4 h. For testing with MC38 cells, the amounts of WST-1 and PMS were doubled. Following incubation, 100 μl of sample was transferred to quadruplicate wells on a 96-well plate, and the absorbance (438 nm) values were measured on a SPECTRAmax Plus^384 microplate spectrophotometer (Molecular Devices Corporation). Data represents the mean A438 values of 16 wells with standard deviation, corrected for media contribution, and normalized against cells in media with no drug/prodrug treatment (reported as % cell viability±standard deviation).
The concentration of drug (μM) that is required for 50% inhibition in vitro is reported as the IC50. The reported values were calculated from the best fit line (Excel) for a plot of effective drug concentration against % cell viability, and include the r^2 value. The reported IC50 values for multiple RRH-PI plots are reported as IC50 (μM)±standard deviation.

[3] = tested on: rapidly dividing hepatocytes; experiment: Mitosis of hepatocytes after 70% partial hepatectomy and portal vein delivery; format: in vivo, ICR mice; details: 2 days after treatment, 0.150 μmol intraportal
Description: Delivery of RRH-PI to rapidly dividing cells results in a decrease in the number of cells in mitosis. […] Following the hepatectomy, PI or III (0.150 μmol, 220 μl total injection volume) were delivered to the liver via the portal vein using the mixing chamber. The abdominal cavity was closed in two layers with 4-0 Braunamid suture. After 48 h, the animals were sacrificed, the livers were harvested, formalin fixed, paraffin imbedded, sectioned, and H&E stained. […] Results are reported as the percentage of cells in metaphase (±standard deviation).

Structure (SMILES) | injected PI bound to hepatocyte nucleic acid (hepatocytes) [%] | cells (hepatocytes) PI positive (hepatocytes) | labeling of peritoneal tumors [1] | cell viability at highest concentration tested, prodrug premixed with ITG (10 min) ([2]; Hepa 1-6, 833 μM) [%] | IC50 ([2]; WST 24 h after) [µM] | IC50 ([2]; WST 48 h after) [µM] | hepatocytes in metaphase [3] [%]
CCCCCCCCCCCCCCCCCC[Si](C)(C)Nc1ccc2c(c1)c(-c1ccccc1)[n+](CCC[N+](C)(CC)CC)c1cc(N[Si](C)(C)CCCCCCCCCCCCCCCCCC)ccc21.[I-].[I-] [II, 3,8-bis[((dimethyl)octadecylsilazyl)amine] 5-(3,3-diethyl-3-methylammoniumpropyl) 6-phenyl phenanthridinium diiodide] | 14 | approximately 70% | intensely labeled | 108±1.3 | 282 | 334 | 
CC[N+](C)(CC)CCC[n+]1c(-c2ccccc2)c2cc(N)ccc2c2ccc(N)cc21.[I-].[I-] [PI, Propidium iodide, reference compound] | 1.2 | approximately 1% |  |  | > 1250 | > 1700 | 7.0
CCCCCCCCCCCCNC(=O)CCC(=CCC(=O)O)C(=O)Nc1ccc2c(c1)c(-c1ccccc1)[n+](CCC[N+](C)(CC)CC)c1cc(NC(=O)C(=CCC(=O)O)CCC(=O)NCCCCCCCCCCCC)ccc21.[I-].[I-] [III, 3,8-bis-[2-(2 carboxyethylidene)-4-(dodecarbamoyl)-1-oxo-butylamine] 5-(3,3-diethyl-3-methylammoniumpropyl) 6-phenyl phenanthridinium diiodide] |  |  | intensely labeled |  |  |  | 2.3
